From US20250332143A1, “COMPOSITION COMPRISING ALOX5 INHIBITOR FOR PREVENTING OR TREATING SARCOPENIA” (PLUTO Inc., priority 2022, published 2025)

Assays:
atrogin-1 and MuRF-1 = experiment: qPCR of atrogin-1 and MuRF-1 in human myotubes; assay type: cell-based
Experimental: For quantitative real-time PCR, transcript levels of genes of interest were analyzed using the StepOnePlus real-time PCR system (Applied Biosystems, UK). Total RNA was reverse transcribed to prepare cDNA using AccuPower® RT PreMix (Bioneer Corporation). The obtained cDNA was subjected to real-time PCR according to the manufacturer's instructions with the following changes. PCR was performed in triplicate in a total volume of 20 μL 2× Power SYBR Green PCR Master Mix (Enzynomics, Republic of Korea) containing 200 nM (final concentration) of each specific primer and 1 μL of cDNA synthesized from 1 μg of total RNA. […] Denaturation was performed at 95° C. for 15 s, annealing was performed at 60° C. for 1 min, and extension was performed at 72° C. for 20 s with fluorescence detection at 72° C. after each cycle. After the final cycle, melting point analysis of all samples was performed within the range of 60 to 95° C. using continuous fluorescence detection. […] Results were expressed as relative expression levels for each gene. The synthesized cDNA was amplified by quantitative real-time PCR (qRT-PCR) or standard PCR.
Human-derived myoblasts were purchased from Thermo-Fisher Scientific (USA). […] Myotubes were stained with H&E. After light microscopy analysis of DIC captured images (Olympus CKX41), myotubes were measured using ImageJ 1.48 software (National Institutes of Health, USA).

FoxO3a = experiment: Western blot of FoxO3a phosphorylation and Atrogin-1 in Dex-treated myotubes; assay type: cell-based, mouse
Experimental: C2C12 murine skeletal muscle myoblasts were obtained from Koram Biotech (Republic of Korea). The cells were maintained in DMEM growth medium supplemented with 10% FBS, 1% penicillin, and streptomycin. When myoblasts proliferated to approximately 90%, they were differentiated into muscle fibers by treating them with DMEM differentiation medium supplemented with 2% HS, 1% penicillin, and streptomycin for 96 hours. Differentiated muscle fibers were treated with 10 μM Dex for 24 hours to induce sarcopenia. To evaluate the degree of differentiation of muscle cells, differentiating myoblasts were treated with the corresponding compound in differentiation medium for 24 or 48 hours. The concentration of intracellular protein was measured using the Bradford assay (Bio-Rad, USA, CA), and electrophoresis was performed by loading on 10% and 12% polyacrylamide gels. Afterwards, the separated proteins were transferred to a PVDF membrane, and the primary antibody used was diluted 1:1000 in TBS-T containing 5% skim milk and incubated overnight at 4° C. Secondary antibodies were diluted 1:2000 and incubated for 35 minutes at room temperature (RT). Band intensity was measured using ImageJ 1.52 software (National Institutes of Health, USA), and intracellular protein was normalized to α-tubulin.

[1] = tested on: Dex-treated C57BL/6J mice; experiment: Dexamethasone-induced sarcopenia mouse model; assay type: in vivo
Experimental: For quantitative real-time PCR, transcript levels of genes of interest were analyzed using the StepOnePlus real-time PCR system (Applied Biosystems, UK). Total RNA was reverse transcribed to prepare cDNA using AccuPower® RT PreMix (Bioneer Corporation). The obtained cDNA was subjected to real-time PCR according to the manufacturer's instructions with the following changes. PCR was performed in triplicate in a total volume of 20 μL 2× Power SYBR Green PCR Master Mix (Enzynomics, Republic of Korea) containing 200 nM (final concentration) of each specific primer and 1 μL of cDNA synthesized from 1 μg of total RNA. PCR amplification consisted of incubating the mixture at 95° C. for 10 minutes, followed by 40 cycles of denaturation, annealing, and extension. Denaturation was performed at 95° C. for 15 s, annealing was performed at 60° C. for 1 min, and extension was performed at 72° C. for 20 s with fluorescence detection at 72° C. after each cycle. After the final cycle, melting point analysis of all samples was performed within the range of 60 to 95° C. using continuous fluorescence detection. Specific cDNA samples were included in each run and used as reference material for comparison between runs. The expression level of GAPDH was used to calculate and normalize the expression levels of all other genes. Results were expressed as relative expression levels for each gene. The synthesized cDNA was amplified by quantitative real-time PCR (qRT-PCR) or standard PCR.
An LTB4 ELISA kit was purchased from MyBioSource (CA, USA). The concentrations of LTB4 in skeletal muscles and cell lysates were measured by the enzyme-linked […] method according to the manufacturer's instructions. Samples (100 μL) were maintained at room temperature (RT) for 1 hour in 96 wells with polyclonal LTB4 antibody. Afterwards, an enzymatic reaction was performed to stop the process, and the absorbance was measured at 405 nm.
8. Dexamethasone-Induced Sarcopenia Mouse Model 12-week-old male C57BL/6J mice were divided into 3 groups of 5 each and treated with drugs as follows: 1) PBS with 5% DMSO and 5% Tween 80 (Vehicle group); 2) 15 mg/kg of Dexamethasone (at a concentration of 15 mg/kg, in PBS containing 5% DMSO and 5% Tween 80) (Dexamethasone group); and 3) 10 mg/kg of malotilate (at a concentration of 10 mg/kg, in PBS containing 15 mg/kg Dexamethasone, 5% DMSO, and 5% Tween 80) (Malotilate group). Those were injected intraperitoneally (solution volume=200 μL) for 2 weeks. Afterwards, the muscle function and conditions of the mice were analyzed.
Grip strength was measured with the BIO-GS3 grip strength test meter (Bioseb, FL, USA). Grip strength was measured by placing the mouse on a grid and gently pulling it back with all four paws until the mouse fell off the grid. The trials were conducted with a time interval of 30 seconds, and the largest value among the three trials was selected as the representative muscle strength.
Muscle fatigue was measured from two different models using Rotarod (Ugo Basile, Italy). One is a constant speed model that measures how long movement can be continued on a cylinder rotating at a constant speed, and the other model is an acceleration model that measures how fast the mouse can continue movement when the speed of the cylinder increases at regular intervals. Mice were trained to adapt from 5 rpm to 15 rpm one day before measurement in the above two models.
Before sacrifice, mice were anesthetized by intraperitoneally administering 22 mg/kg Ketamine (Yuhan, Republic of Korea) and 10 mg/kg xylazine (Bayer, Republic of Korea) by IP injection, and then samples were collected. Quadriceps, gastrocnemius, tibialis anterior and soleus muscles were sampled and their weights were measured. The muscles sampled for immunohistostaining were cultured overnight at 4° C. with 4% paraformaldehyde, fixed, embedded in paraffin solution, and stored at −80° C. […]

[2] = Dex-treated mice, 10 mg/kg intraperitoneally, 2 weeks
[3] = Dex-treated mice, quadriceps, mRNA

In the case of `CC(C)OC(=O)C(C(=O)OC(C)C)=C1SC=CS1` [malotilate, Malotilate], the MuRF-1 expression (atrogin-1 and MuRF-1) is reported as “significantly reduced”, the atrogin-1 expression (atrogin-1 and MuRF-1) is reported as “significantly reduced” and the “Atrogin-1 expression (Western blot)” value (FoxO3a) is reported as “decrease”. For the same molecule, the FoxO3a phosphorylation levels (FoxO3a; Western blot) was “increased”, the grip strength [1, 2] was “significantly increased” and the “latency to fall, rotarod” value [1, 2] was “significantly increased”. The “maximum velocity, rotarod” value [1, 2] was “significantly increased”, the quadriceps muscle mass [1, 2] was “increased” and the soleus muscle mass [1, 2] was “increased”. The “LTB4 level in muscle (ELISA)” value ([1]; Dex-treated mice, quadriceps) was “lowered”, the “average muscle fiber cross sectional area (CSA)” value ([1]; Dex-treated mice, quadriceps) was “increased” and the “proportion of fibers with larger CSA” value ([1]; Dex-treated mice, quadriceps) was “increased”. For the same molecule, the “MuRF-1 expression in muscle” value [1, 3] was “reduced”, the “atrogin-1 expression in muscle” value [1, 3] was “reduced” and the skeletal muscle atrophy ([1]; animal model of sarcopenia due to Dex treatment) was “inhibited”.
